Where two headings read alike, the source gives them in different places.
How the values were obtained:
[1] = tested on: Hh signaling (Gli1 mRNA) in C3H10T1/2 cells; test: Down-regulation of endogenous Gli1 mRNA in Hh-dependent C3H10T1/2 cells; type: cell-based, mouse; conditions: Mus musculus
Outline: (§1)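 Hh pathway activated in C3H10T1/2 cells with exogenous agonist (recombinant Hh ligand or small molecule) alongside inhibitor; Gli1 mRNA measured by qPCR. Concentration-dependent Gli1 reduction also assessed in murine BCC ASZ cells; values mean±SEM, ≥2 experiments in triplicate.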

[2] = tested on: Hh signaling (Gli1 mRNA) in ASZ cells; test: Down-regulation of endogenous Gli1 mRNA in ASZ cells; type: cell-based, murine; conditions: Mus musculus
Outline: as §1

HUVEC = HUVEC proliferation (MTS); type: cell-based, human; conditions: Homo sapiens, HUVEC, 72 h, read-out: GI50 (μM) HUVEC, 72 h
Outline: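 HUVECs seeded at 3,000 cells/well, attached overnight, then treated with varying drug concentrations. Proliferation read by MTS/PMS after 72 h.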

[3] = tested on: Gli1 in DAOYs (cultured MB); test: Down-regulation of Gli1 in DAOY cells; type: cell-based; conditions: Homo sapiens
Text: Additional analogues have been synthesized and characterized in the assays described above.

BBB-PAMPA = type: in vitro ADME; conditions: preliminary studies, read-out: apparent permeability (Papp)
Text: (§2) Each analogue will also be evaluated in assays to develop SPR for the ability of the scaffold to penetrate the BBB and accumulate in the brain. First, a standard BBB-PAMPA assay will be used to predict the ability to passively diffuse across the BBB. In this method, an artificial membrane that has been designed to mimic the BBB is immobilized on a filter between a donor and acceptor compartment. […] For these assays, Madin Darby canine kidney cells (MDCK) are transfected with either P-gp or BCRP and grown to confluence on filter inserts in a transwell apparatus analogous to that used for the PAMPA assay. Analogue (10 μM) is added to either the donor or acceptor compartment and following a 60 min incubation period, compound concentrations in both compartments are quantified via LC/MS/MS. […] The fluorescent dye lucifer yellow will be utilized to ensure membrane integrity in the transporter assays. The BBB-PAMPA assay and both transporter assays will be performed in collaboration with the Sanford-Burnham Exploratory Pharmacology Core Facility.

P-gp = biological target: T1, P-gp (Homo sapiens, UniProt P08183); test: P-gp transporter substrate assay; type: in vitro ADME
T1 construct: expressed in transfected cells; host or cells: Madin Darby canine kidney cells (MDCK)
Text: as §2

BCRP = biological target: T2, BCRP (Homo sapiens, UniProt Q9UNQ0); test: BCRP transporter substrate assay; type: in vitro ADME
T2 construct: expressed in transfected cells; host or cells: Madin Darby canine kidney cells (MDCK)
T2 sequence (Q9UNQ0 1-655): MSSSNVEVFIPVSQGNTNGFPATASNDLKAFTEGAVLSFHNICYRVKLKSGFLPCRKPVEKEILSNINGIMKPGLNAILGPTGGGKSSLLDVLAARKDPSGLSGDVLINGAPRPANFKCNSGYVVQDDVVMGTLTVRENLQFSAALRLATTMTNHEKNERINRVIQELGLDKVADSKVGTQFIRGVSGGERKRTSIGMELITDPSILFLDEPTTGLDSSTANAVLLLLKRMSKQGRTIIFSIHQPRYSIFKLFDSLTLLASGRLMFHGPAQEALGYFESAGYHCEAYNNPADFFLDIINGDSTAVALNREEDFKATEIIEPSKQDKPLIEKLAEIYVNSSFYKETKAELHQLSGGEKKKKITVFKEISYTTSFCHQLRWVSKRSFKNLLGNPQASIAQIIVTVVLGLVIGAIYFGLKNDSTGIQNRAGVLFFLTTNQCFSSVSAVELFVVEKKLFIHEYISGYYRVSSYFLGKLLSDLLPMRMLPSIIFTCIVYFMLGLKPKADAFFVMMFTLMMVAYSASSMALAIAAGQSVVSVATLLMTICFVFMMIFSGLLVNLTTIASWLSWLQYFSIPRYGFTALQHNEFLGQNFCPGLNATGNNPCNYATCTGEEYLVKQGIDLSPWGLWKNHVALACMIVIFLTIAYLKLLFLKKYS
Text: as §2

T1 sequence (P08183 whole entry): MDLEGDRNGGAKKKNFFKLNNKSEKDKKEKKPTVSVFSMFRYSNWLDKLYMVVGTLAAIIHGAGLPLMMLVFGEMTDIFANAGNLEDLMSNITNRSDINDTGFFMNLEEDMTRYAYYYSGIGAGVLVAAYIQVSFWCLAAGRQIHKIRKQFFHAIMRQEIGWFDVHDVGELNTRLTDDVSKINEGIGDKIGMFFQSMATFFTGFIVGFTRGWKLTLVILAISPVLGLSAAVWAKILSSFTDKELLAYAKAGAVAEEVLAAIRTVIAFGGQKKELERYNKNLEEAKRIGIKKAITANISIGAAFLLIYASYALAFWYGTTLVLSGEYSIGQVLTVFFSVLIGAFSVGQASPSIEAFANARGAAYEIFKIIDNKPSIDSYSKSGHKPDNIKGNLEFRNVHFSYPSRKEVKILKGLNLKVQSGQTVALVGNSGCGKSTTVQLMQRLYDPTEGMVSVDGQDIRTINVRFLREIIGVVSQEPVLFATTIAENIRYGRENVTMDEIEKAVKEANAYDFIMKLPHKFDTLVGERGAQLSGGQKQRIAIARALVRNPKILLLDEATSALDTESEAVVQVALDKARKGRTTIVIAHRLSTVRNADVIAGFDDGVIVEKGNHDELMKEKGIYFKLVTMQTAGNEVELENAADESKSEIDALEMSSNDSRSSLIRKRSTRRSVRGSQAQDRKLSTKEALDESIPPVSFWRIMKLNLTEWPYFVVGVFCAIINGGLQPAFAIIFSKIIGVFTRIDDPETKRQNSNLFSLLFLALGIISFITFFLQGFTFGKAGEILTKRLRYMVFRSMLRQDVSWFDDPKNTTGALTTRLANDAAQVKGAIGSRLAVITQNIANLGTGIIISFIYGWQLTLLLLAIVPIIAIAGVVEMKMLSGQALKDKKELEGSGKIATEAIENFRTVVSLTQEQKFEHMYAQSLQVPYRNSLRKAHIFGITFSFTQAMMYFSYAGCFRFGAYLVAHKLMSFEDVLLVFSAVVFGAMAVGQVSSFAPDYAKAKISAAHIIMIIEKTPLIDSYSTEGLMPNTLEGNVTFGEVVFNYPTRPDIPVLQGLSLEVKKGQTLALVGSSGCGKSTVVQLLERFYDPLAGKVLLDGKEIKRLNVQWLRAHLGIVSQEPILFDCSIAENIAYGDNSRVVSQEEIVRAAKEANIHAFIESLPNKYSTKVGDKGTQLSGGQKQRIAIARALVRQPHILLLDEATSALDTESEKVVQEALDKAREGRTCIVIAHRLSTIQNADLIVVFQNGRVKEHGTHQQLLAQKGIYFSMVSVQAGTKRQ

Question: Which IC50 ([1]; C3H 10T1/2, 24 h, read-out: IC50 (μM) C3H10T1/2, 24 hr incubation) does the source give for CC[C@@H]([C@H](C)O)n1ncn(-c2ccc(N3CCN(c4ccc(OC[C@@H]5CO[C@@](Cn6cncn6)(c6ccc(F)cc6F)C5)cc4)CC3)cc2)c1=O [PSZ, posaconazole, reference compound] here?
Answer: The IC50 was 0.14 ± 0.02 µM.

Question: And the inhibition at 1 µM ([1]; C3H 10T1/2, read-out: % Hh inhibition)?
Answer: Its inhibition at 1 µM is 95%.

Question: And the IC50 ([1]; C3H 10T1/2, read-out: IC50 (μM) Gli1-C3Hs)?
Answer: Its IC50 is 0.01 ± 0.005 µM.

Question: And the IC50 ([1]; C3H 10T1/2, read-out: IC50 down-regulation of Gli1, C3H10T1/2 cells)?
Answer: Its IC50 is 0.01 µM.

Question: And the IC50 ([2]; 48 h, read-out: IC50 (μM) ASZ, 48 hr incubation)?
Answer: Its IC50 is 0.54 ± 0.05 µM.

Question: And the IC50 ([2]; read-out: IC50 (μM) Gli1-ASZs)?
Answer: Its IC50 is 0.54 ± 0.05 µM.

Question: And the GI50 (HUVEC)?
Answer: Its GI50 is 1.6 ± 0.02 µM.

Question: And the IC50 [3]?
Answer: Its IC50 is 0.89 ± 0.1 µM.

Question: And the Papp at 30 min, 10 μM (BBB-PAMPA)?
Answer: The Papp at 30 min, 10 μM was 46 ×10⁻⁶ cm/s.

Question: And the “substrate of P-gp” value (P-gp)?
Answer: Its value is “not a substrate”.

Question: What about the “substrate of BCRP” value (BCRP) of the same molecule?
Answer: Its value is “not a substrate”.

Reference: US9650365B2 (UNIVERSITY OF CONNECTICUT, priority 2014, dated 2017)
